# Measurements as given in US20230295197A1, “STAT5 and STAT6 Degraders and Uses Thereof” (REGENTS OF THE UNIVERSITY OF MICHICAN, priority 2022, published 2023).
# Read-outs that look alike come from different tables or passages of the source.
# Target: T1, STAT6 (Homo sapiens, UniProt P42226)
# T1 construct: endogenous in cells; host or cells: MOLM-16, KU-812, SKNO1, MB231, L1236
# T1 sequence (P42226 1-847): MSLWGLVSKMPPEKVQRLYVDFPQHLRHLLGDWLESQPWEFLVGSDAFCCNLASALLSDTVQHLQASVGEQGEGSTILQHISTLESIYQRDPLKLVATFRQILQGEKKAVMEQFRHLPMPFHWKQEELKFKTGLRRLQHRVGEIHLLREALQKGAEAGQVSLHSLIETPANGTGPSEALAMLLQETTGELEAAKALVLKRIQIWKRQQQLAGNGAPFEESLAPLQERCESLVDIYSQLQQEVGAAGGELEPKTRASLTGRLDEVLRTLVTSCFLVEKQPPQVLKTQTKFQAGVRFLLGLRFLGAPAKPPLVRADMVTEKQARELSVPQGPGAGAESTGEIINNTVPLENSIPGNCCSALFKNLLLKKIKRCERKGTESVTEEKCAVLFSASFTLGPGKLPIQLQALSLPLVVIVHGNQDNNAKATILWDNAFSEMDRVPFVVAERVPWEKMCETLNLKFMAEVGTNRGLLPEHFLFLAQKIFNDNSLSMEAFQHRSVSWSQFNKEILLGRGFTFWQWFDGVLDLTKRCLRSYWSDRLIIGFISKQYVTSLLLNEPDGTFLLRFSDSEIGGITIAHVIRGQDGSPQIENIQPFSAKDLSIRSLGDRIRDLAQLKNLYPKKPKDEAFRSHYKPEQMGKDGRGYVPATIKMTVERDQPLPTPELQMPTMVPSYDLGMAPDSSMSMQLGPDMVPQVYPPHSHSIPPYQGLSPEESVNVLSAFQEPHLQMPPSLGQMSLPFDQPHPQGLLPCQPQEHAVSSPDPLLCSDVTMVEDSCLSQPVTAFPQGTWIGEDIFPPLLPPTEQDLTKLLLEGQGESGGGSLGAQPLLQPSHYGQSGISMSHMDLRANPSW
# Assay: Immunoblotting (Western blot) analysis of STAT6 degradation efficiency of degraders in treated cells
# Format: cell-based
# Description: Evaluation of the degradation efficiency of degraders may be accomplished by immunoblotting analysis. The representative general protocol is the following:
# Cells are maintained in the appropriate culture medium with 10% FBS at 37° C. and an atmosphere of 5% CO2. Cell lines are used within three months of thawing fresh vials. Cells are lysed 1× Cell Lysis Buffer (Cell Signaling Technology, #9803), resolved by SDS-PAGE NuPAGE gel (Thermo Fisher Scientific), and transferred to a PVDF membrane (Millipore). Membranes are blocked using Odyssey TBS Blocker Buffer (LI-COR). IRDye 680RD and 800CW Dye-labeled secondary antibodies (LI-COR) are used. The washed membranes are scanned using Odyssey CLx imager (LI-COR). The intensity of Western blot signaling is quantitated using the Odyssey software. Primary antibodies used are: STAT5 Rabbit mAb (Cell Signaling Technology, #94205), STAT6 Rabbit mAb (Cell Signaling Technology, #5397) and GAPDH mouse monoclonal antibody (Santa Cruz Biotechnology, sc-47724).
# To evaluate the degradation efficiency of degraders, immunoblotting analysis was performed. The general protocol is the following.
# About 1 million cells for each data point were treated with compounds at indicated concentrations and durations. Untreated and treated cells in cell culture medium were transferred into tubes, followed by centrifugation at 3,000 rpm and 4° C. for 6 min Supernatants were removed from tubes and radioimmunoprecipitation assay (RIPA) lysis buffer supplemented with 1% protease inhibitor cocktail (Fisher Scientific cat. PI87786) and phosphatase inhibitor (Roche cat. 04906837001) were added to tubes containing the remaining cell pellets. The tubes were then left on ice for 30 min and placed in a −80° C. freezer. Subsequently they were thawed in 37° C. water, then centrifuged at 14,000 rpm for 15 min and the cell lysates transferred to new tubes. The concentration of total proteins in each tube was calculated using the Pierce BCA protein Assay kit (cat. 23225). Based on the calculated protein concentration, cell lysates containing approximately the same amount of proteins were transferred to new tubes, then distilled water and 4× Protein Sample Loading Buffer for Western Blots (LI-COR cat. 928-40004) supplemented with 20% of mercaptoethanol (Sigma Aldrich cat. M6250) were added on ice. The cell lysates were then reduced and denatured at 95° C. for 5 min. From the tubes containing cell lysates an equal amount of protein samples (20-40 μg) was loaded into precast 8%, 10%, 4%-12%, or 4%-20% Tris-glycine gels (Novex) filled with Tris-glycine SDS running buffer. After the proteins were resolved, they were transferred onto Immobile-FL PVDF Membrane (Millipore Sigma cat. IPFL00010), using Mini Trans-Blot Electrophoretic Transfer Cell (Bio-Rad 1703930). The membranes were blocked with Intercept Blocking Buffer (LI-COR cat. 927-70001) in LI-COR Western Blot boxes for 1 h at rt. The membranes were washed with 1× Tris-buffered saline-Tween-20 (TBST, 1× solution was made from 20×TBST solution, ThermoFisher Scientific cat. 28360) for 5 min 4 times. The membranes were incubated overnight at 4° C. in Intercept Blocking Buffer supplemented with primary antibodies (normally antibody:buffer 1:1000) and Tween-20. The membranes were washed with TBST for 5 min 4 times and were incubated with Intercept Blocking Buffer supplemented with IRDye 800CE Secondary Antibodies, IRDye 680RD Secondary Antibodies (LI-COR biosciences), Tween-20, and 10% SDS solution, for 1 h at rt. The membranes were then washed with TBST for 5 min 4 times and rinsed with deionized water before drying and scanning with Odyssey Dlx Amazing System (LI-COR). The immunoblots were finally quantified by the software.
# [1] = MOLM-16 cells, class symbols, read-out: DC50 S6 MOLM-16
# [2] = L1236 cells, read-out: DC50 S6 L1236
SMILES,DC50 [1] [µM],also measured
"Cc1cc([C@H](C(=O)N2C[C@H](O)C[C@H]2C(=O)N[C@@H](CC(=O)NCCCCCCCCCCNC(=O)CCN(C(=O)[C@@H]2CCCN2C(=O)[C@@H](NC(=O)c2cc3cc(C(F)(F)P(=O)(O)O)ccc3s2)C(C)(C)C)c2ccc(Br)cc2)c2ccc(-c3scnc3C)cc2)C(C)C)on1 [Compound 407, ((2-(((S)-1-((S)-2-((4-bromophenyl)(3-((10-((S)-3-((2S,4R)-4-hydroxy-1-((R)-3-methyl-2-(3-methylisoxazol-5-yl)butanoyl)pyrrolidine-2-carboxamido)-3-(4-(4-methylthiazol-5-yl)phenyl)propanamido)decyl)amino)-3-oxopropyl)carbamoyl)pyrrolidin-1-yl)-3,3-dimethyl-1-oxobutan-2-yl)carbamoyl)benzo[b]thiophen-5-yl)difluoromethyl)phosphonic acid]",–,"DC50 (MB231 cells, read-out: DC50 S6 MB231): > 10 µM"
"CC(C)(C)[C@H](NC(=O)c1cc2cc(C(F)(F)P(=O)(O)O)ccc2s1)C(=O)N1Cc2cc(OCC(=O)NCCCCCC#Cc3cccc4c3C(=O)N(C3CCC(=O)NC3=O)C4=O)ccc2C[C@H]1C(=O)N1CCO[C@H](c2ccccc2)C1 (stereo partly drawn) [Compound 543, ((2-(((2S)-1-((3S)-7-(2-((7-(2-(2,6-dioxopiperidin-3-yl)-1,3-dioxoisoindolin-4-yl)hept-6-yn-1-yl)amino)-2-oxoethoxy)-3-((R)-2-phenylmorpholine-4-carbonyl)-3,4-dihydroisoquinolin-2(1H)-yl)-3,3-dimethyl-1-oxobutan-2-yl)carbamoyl)benzo[b]thiophen-5-y)difluoromethyl)phosphonic acid]",> 10,–
"Cc1ncsc1-c1ccc([C@H](CC(=O)NCCOCCOCCOCCC(=O)N[C@H]2C[C@@H](C(=O)N3CCO[C@H](c4ccccc4)C3)N(C(=O)[C@@H](NC(=O)c3cc4cc(C(F)(F)P(=O)(O)O)ccc4s3)C(C)(C)C)C2)NC(=O)[C@@H]2C[C@@H](O)CN2C(=O)[C@@H](NC(=O)C2(F)CC2)C(C)(C)C)cc1 [Compound 573, (difluoro(2-(((S)-1-((2S,4S)-4-((S)-1-((2S,4R)-1-((S)-2-(1-fluorocyclopropane-1-carboxamido)-3,3-dimethylbutanoyl)-4-hydroxypyrrolidin-2-yl)-3-(4-(4-methylthiazol-5-yl)phenyl)-1,5-dioxo-9,12,15-trioxa-2,6-diazaoctadecan-18-amido)-2-((R)-2-phenylmorpholine-4-carbonyl)pyrrolidin-1-yl)-3,3-dimethyl-1-oxobutan-2-yl)carbamoyl)benzo[b]thiophen-5-yl)methyl)phosphonic acid]",> 10,–
"Cc1ncsc1-c1ccc([C@H](C)NC(=O)[C@@H]2C[C@@H](O)CN2C(=O)[C@@H](NC(=O)CCCCCCCCNC(=O)CO[C@H]2C[C@@H](C(=O)N3CCO[C@H](c4ccccc4)C3)N(C(=O)[C@@H](NC(=O)c3cc4cc(C(F)(F)P(=O)(O)O)ccc4s3)C(C)(C)C)C2)C(C)(C)C)cc1 [Compound 432, (difluoro(2-(((S)-1-((2S,4S)-4-(2-((9-(((S)-1-((2S,4R)-4-hydroxy-2-(((S)-1-(4-(4-methylthiazol-5-yl)phenyl)ethyl)carbamoyl)pyrrolidin-1-yl)-3,3-dimethyl-1-oxobutan-2-yl)amino)-9-oxononyl)amino)-2-oxoethoxy)-2-((R)-2-phenylmorpholine-4-carbonyl)pyrrolidin-1-yl)-3,3-dimethyl-1-oxobutan-2-yl)carbamoyl)benzo[b]thiophen-5-yl)methyl)phosphonic acid]",> 10,DC50 [2]: > 10 µM
CC(C)(C)[C@H](NC(=O)c1cc2cc(C(F)(F)P(=O)(O)O)ccc2s1)C(=O)N1C[C@@H](OCCCCCCC#Cc2cccc3c2CN(C2CCC(=O)NC2=O)C3=O)C[C@H]1C(=O)N1CCOC(c2cccnc2)C1 (stereo partly shown) [Compound 609],–,"DC50 (MOLM-16 cells, numeric bound, read-out: DC50 S6 MOLM-16): > 0.3 µM"
"CC(C)(C)[C@H](NC(=O)c1cc2cc(C(F)(F)P(=O)(O)O)ccc2s1)C(=O)N1Cc2cc(OCC(=O)NCCCCC#Cc3ccc4c(c3)C(=O)N(C3CCC(=O)NC3=O)C4=O)ccc2C[C@H]1C(=O)N1CCO[C@H](c2ccccc2)C1 (stereo partly drawn) [Compound 542, ((2-(((2S)-1-((3S)-7-(2-((6-(2-(2,6-dioxopiperidin-3-yl)-1,3-dioxoisoindolin-5-yl)hex-5-yn-1-yl)amino)-2-oxoethoxy)-3-((R)-2-phenylmorpholine-4-carbonyl)-3,4-dihydroisoquinolin-2(1H)-yl)-3,3-dimethyl-1-oxobutan-2-yl)carbamoyl)benzo[b]thiophen-5-yl)difluoromethyl)phosphonic acid]",> 10,–
"Cc1ncsc1-c1ccc([C@H](C)NC(=O)[C@@H]2C[C@@H](O)CN2C(=O)[C@@H](NC(=O)CCCCCCNC(=O)CO[C@H]2C[C@@H](C(=O)N3CCO[C@H](c4ccccc4)C3)N(C(=O)[C@@H](NC(=O)c3cc4cc(C(F)(F)P(=O)(O)O)ccc4s3)C(C)(C)C)C2)C(C)(C)C)cc1 [Compound 430, (difluoro(2-(((S)-1-((2S,4S)-4-(2-((7-(((S)-1-((2S,4R)-4-hydroxy-2-(((S)-1-(4-(4-methylthiazol-5-yl)phenyl)ethyl)carbamoyl)pyrrolidin-1-yl)-3,3-dimethyl-1-oxobutan-2-yl)amino)-7-oxoheptyl)amino)-2-oxoethoxy)-2-((R)-2-phenylmorpholine-4-carbonyl)pyrrolidin-1-yl)-3,3-dimethyl-1-oxobutan-2-yl)carbamoyl)benzo[b]thiophen-5-yl)methyl)phosphonic acid]",> 10,DC50 [2]: > 10 µM
"CC(C)(C)[C@H](NC(=O)c1cc2cc(C(F)(F)P(=O)(O)O)ccc2s1)C(=O)N1CCN(C(=O)CC(=O)NCCCCCC#Cc2ccc3c(c2)C(=O)N(C2CCC(=O)NC2=O)C3=O)C[C@H]1C(=O)N1CCC[C@H](c2ccccc2)C1 (stereo partly drawn) [Compound 530, ((2-(((2S)-1-((2S)-4-(3-((7-(2-(2,6-dioxopiperidin-3-yl)-1,3-dioxoisoindolin-5-yl)hept-6-yn-1-yl)amino)-3-oxopropanoyl)-2-((R)-3-phenylpiperidine-1-carbonyl)piperazin-1-yl)-3,3-dimethyl-1-oxobutan-2-yl)carbamoyl)benzo[b]thiophen-5-yl)difluoromethyl)phosphonic acid]",> 10,–
